These results are taken from patent US20240287074A1, “SALTS AND CRYSTALS” (Kinoxis Therapeutics Pty Ltd, priority 2020, published 2024).

The nature of data set [1]: Dynamic / gravimetric vapour sorption (DVS/GVS) hygroscopicity. The class given is physicochemical. How it is done: Approximately, 10-20 mg of sample was placed into a mesh vapour sorption balance pan and loaded into a DVS Intrinsic dynamic vapour sorption balance by Surface Measurement Systems. The sample was subjected to a ramping profile from 40-90% relative humidity (RH) at 10% increments, maintaining the sample at each step until a stable weight had been achieved (dm/dt 0.004%, minimum step length 30 minutes, maximum step length 500 minutes) at 25° C. After completion of the sorption cycle, the sample was dried using the same procedure to 0% RH and then a second sorption cycle back to 40% RH. Two cycles were performed. The weight change during the sorption/desorption cycles were plotted, allowing for the hygroscopic nature of the sample to be determined. XRPD analysis was then carried out on any solid retained.
Approximately 10-20 mg of sample was placed into a mesh vapour sorption balance pan and loaded into an IGASorp Moisture Sorption Analyser balance by Hiden Analytical. The sample was subjected to a ramping profile from 40-90% relative humidity (RH) at 10% increments, maintaining the sample at each step until a stable weight had been achieved (98% step completion, minimum step length 30 minutes, maximum step length 60 minutes) at 25° C. After completion of the sorption cycle, the sample was dried using the same procedure to 0% RH, and finally taken back to the starting point of 40% RH. Two cycles were performed. The weight change during the sorption/desorption cycles were plotted, allowing for the hygroscopic nature of the sample to be determined.

Data set [2] has as its system orthosteric vasopressin receptor binding sites. The settings on record: cited from earlier work.
Data set [3] in a line: Oral pharmacokinetics in rats. It counts as in vivo. The settings on record: for Plasma AUC0-inf/Dose / Plasma Cmax/Dose: dose-normalised; for Plasma AUC0-inf/Dose / Plasma Cmax/Dose / BA % / % Dose in urine: male Sprague Dawley rats; for Plasma AUC0-inf/Dose / Plasma Cmax/Dose / % Dose in urine: dihydrochloride; for BA % / % Dose in urine / Cmax / half-life / AUC(0-inf) / Tmax: 5 mg/kg target dose (freebase equivalent), 5 mg/kg; for BA % / Cmax / half-life / AUC(0-inf) / Tmax: mean ± SD; for BA %: n = 3, dihydrochloride; for % Dose in urine: urine up to 24 h; for Cmax / half-life / AUC(0-inf) / Tmax: male, Sprague Dawley, rat, plasma, po; for Cmax: n = 3; for half-life: n = 3, read-out: Apparent t1/2 (converted); for AUC(0-inf): n = 3, read-out: Plasma AUC0-inf; for Tmax: n = 3, read-out: Tmax. Here is the method: N=3 rats were run in each of the four conditions: • (1) Di-HCL salt in saline • (2) Di-HCL salt in methocel • (3) Phosphate form 1 in saline • (4) Phosphate form 1 in methocel
On the day of dosing the solid compounds were dissolved in either Saline (0.9%) or 0.5% hydroxypropyl methylcellulose (Methocel E3 Premium LV) in Milli-Q water. The formulations were then thoroughly vortexed to produce colourless solutions.
Overnight-fasted rats with adlibitum access to water were administered their dose of the various forms of the compound of the invention via oral gavage (PO) at a dose volume of 3 ml/kg and a dose of 5 mg/kg freebase equivalent. Food access was re-instated 4 hours (h) post-dose. Samples of arterial blood were collected up to 24 h post-dose. After collection, samples were centrifuged, plasma was removed and stored frozen at −80° C. before being analysed by LC-MS. Urine samples were collected at pre, 0-4 h, 4-7 h and 7-24 h post-dose and were analysed by LC-MS following extraction.

The target of data set [4] is T1, orthosteric oxytocin receptor binding sites (Homo sapiens, UniProt P30559).
T1 sequence (P30559 1-389): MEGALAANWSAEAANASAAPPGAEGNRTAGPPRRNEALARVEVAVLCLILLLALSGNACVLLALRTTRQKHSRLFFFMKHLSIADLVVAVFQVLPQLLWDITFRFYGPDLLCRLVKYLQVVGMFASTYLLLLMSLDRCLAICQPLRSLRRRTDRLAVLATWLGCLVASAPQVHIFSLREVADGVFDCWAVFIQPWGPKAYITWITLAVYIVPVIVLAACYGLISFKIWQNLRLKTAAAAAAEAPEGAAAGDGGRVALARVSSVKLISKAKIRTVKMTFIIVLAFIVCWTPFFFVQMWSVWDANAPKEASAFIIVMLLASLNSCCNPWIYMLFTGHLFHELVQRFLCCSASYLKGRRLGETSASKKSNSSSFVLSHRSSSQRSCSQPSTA
The settings on record: cited from earlier work.

The subject of data set [5] is C57BL/6 mouse model of opioid withdrawal. Put plainly: Naloxone precipitated oxycodone withdrawal-induced jumping. The class given is in vivo. As to conditions: 7.3 mg/kg FBE i.p., C57BL/6 mice, 30 min session, vs OXY_VEH. How it is done:
Two cohorts of adult male C57BL/6 mice were run assessing the effects of 7.3 mg/kg freebase equivalent (FBE) IP of the compound of the invention in the dihydrochloride salt form (CMPD1-2HCL) and the phosphate form 1 (CMPD1-PO4) on naloxone precipitated withdrawal-induced jumping.
The first cohort of mice (N=30) were split into the following conditions: • (1) Vehicle, 0 mg/kg (n=10); • (2) oxycodone, 0 mg/kg compound of the invention FBE in 2HCL salt form (n=10); • (3) oxycodone, 7.3 mg/kg compound of the invention FBE in 2HCL salt form (n=10).
The second cohort of mice (N=24) were split into the following conditions: • (1) Vehicle, 0 mg/kg (n=8); • (2) oxycodone, 0 mg/kg compound of the invention FBE in PO4 salt form (n=8); • (3) oxycodone, 7.3 mg/kg compound of the invention FBE in PO4 salt form (n=8).
Mice in the oxycodone conditions received i.p. injections of oxycodone for 5 days according to the schedule and doses set out in Table 8. The morning and afternoon doses were separated by 7 h. Mice in the vehicle condition received injections of vehicle saline instead of oxycodone. […]
Testing involved placing mice individually into a 20 (I)×20 (w)×30 (h) cm arena for 30 min. […] Number of jumps were scored from the videos by an experienced experimenter blind to conditions.
Data were analysed by SPSS using oneway ANOVA and planned contrasts.

Structures can show the parent of a compound that is named as a salt. Where two headings read alike, the source gives them in different places. Marks after values point to notes of the source that are not given here.

One may read the Cmax as the peak of the concentration-time curve. What is called Tmax is the time at which the peak concentration occurs. As to `Cn1ncc2c1Nc1ccccc1NC2` [Di-hydrochloride salt, 1-Methyl-1,4,5,10-tetrahydropyrazolo[3,4-b][1,5]benzodiazepine dihydrochloride], in data set [1], the “relative humidity above which form change is indicated by DVS” value is “above 60 % RH” and the “relative humidity below which the weight change is reversible (DVS)” value is on record as “below 30 % RH”. For the same molecule, the hygroscopicity entry in data set [1] (DVS, 25° C., dihydrochloride) is on record as “high hygroscopicity”. Besides, the “binding affinity for the orthosteric vasopressin receptor binding sites” value in data set [2] is on record as “without demonstrating significant binding affinity”. Moreover, in data set [3] (Methocel), the “Plasma AUC0-inf/Dose” value is given as 0.91 ± 0.12 (μg*h/mL)/(mg/kg), the “Plasma Cmax/Dose” value was 0.40 ± 0.02 (μg/mL)/(mg/kg), the BA % is recorded as 98.9 ± 13^b % and the “% Dose in urine” value is reported as 0.224 ± 0.14%. Moreover, in data set [3] (Methocel), the highest concentration (Cmax) was 1800 ± 110 ng/mL, the half-life is 40.8 ± 12 min, the AUC(0-inf) worked out at 4100 ± 520 ng·h/mL and the Tmax came to 19.8 ± 6 min. Also, in data set [3] (Saline), the “Plasma AUC0-inf/Dose” value is given as 1.14 ± 0.12 (μg*h/mL)/(mg/kg), the “Plasma Cmax/Dose” value was 0.61 ± 0.29 (μg/mL)/(mg/kg), the BA % was found to be 124 ± 13% and the “% Dose in urine” value is 0.184 ± 0.059%. In data set [3] (Saline), the peak concentration (Cmax) was 2930 ± 1360 ng/mL, the half-life was 41.4 ± 6 min, the AUC(0-inf) came out at 5460 ± 540 ng·h/mL and the time to peak (Tmax) came out at 45 ± 24 min. Further, the “binding affinity for the orthosteric oxytocin receptor binding sites” value in data set [4] is recorded as “without demonstrating significant binding affinity”. Also, the oxycodone withdrawal-induced jumping result in data set [5] is “significantly inhibited”.
